# Assay results from ChEMBL document CHEMBL5113460, “Discovery of dual inhibitors of topoisomerase I and Cyclooxygenase-2 for colon cancer therapy” (Eur J Med Chem, 2022).
# Activity calls are given as the source filed them. The rule behind the calls is not given here.
# Experiments:
# [1] = molecular target: T1, DNA topoisomerase 1 (Homo sapiens) (UniProt P11387); assay: Inhibition of topoisomerase 1 (unknown origin) assessed as relaxation of supercoiled plasmid pBR322 DNA at 10 uM incubated for 45 mins by ethidium bromide staining based agarose gel electrophoresis
# T1 sequence (whole entry): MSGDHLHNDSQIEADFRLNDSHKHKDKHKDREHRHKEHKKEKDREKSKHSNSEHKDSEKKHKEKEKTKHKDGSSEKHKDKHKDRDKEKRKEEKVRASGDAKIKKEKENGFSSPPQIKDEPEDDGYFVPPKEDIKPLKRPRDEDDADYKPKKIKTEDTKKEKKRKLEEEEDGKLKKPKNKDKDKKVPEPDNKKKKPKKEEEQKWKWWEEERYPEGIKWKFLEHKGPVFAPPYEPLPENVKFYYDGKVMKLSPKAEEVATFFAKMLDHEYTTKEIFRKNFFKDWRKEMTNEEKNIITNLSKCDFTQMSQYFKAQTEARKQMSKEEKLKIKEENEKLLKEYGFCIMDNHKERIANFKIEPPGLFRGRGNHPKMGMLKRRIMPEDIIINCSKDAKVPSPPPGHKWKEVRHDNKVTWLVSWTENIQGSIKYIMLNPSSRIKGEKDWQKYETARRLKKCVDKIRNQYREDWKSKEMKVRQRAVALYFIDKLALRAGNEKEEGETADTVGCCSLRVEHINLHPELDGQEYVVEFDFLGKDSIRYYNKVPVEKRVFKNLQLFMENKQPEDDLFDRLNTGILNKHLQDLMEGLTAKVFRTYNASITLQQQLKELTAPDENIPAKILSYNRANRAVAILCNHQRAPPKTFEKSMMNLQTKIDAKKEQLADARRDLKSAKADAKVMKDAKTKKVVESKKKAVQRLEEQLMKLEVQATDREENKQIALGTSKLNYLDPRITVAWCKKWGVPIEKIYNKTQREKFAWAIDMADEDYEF
# [2] = molecular target: T1, DNA topoisomerase 1 (Homo sapiens); assay: Inhibition of topoisomerase 1 (unknown origin) assessed as relaxation of supercoiled plasmid pBR322 DNA at 1 uM incubated for 45 mins by ethidium bromide staining based agarose gel electrophoresis
# [3] = test system: HT-29; assay: Antitumor activity against human HT-29 cells assessed as inhibition of cell proliferation incubated for 72 hrs by MTT assay; assay type: functional, cell-based; details: HT-29, 72 h
# [4] = test system: RKO; assay: Antitumor activity against human RKO cells assessed as inhibition of cell proliferation incubated for 72 hrs by MTT assay; assay type: functional, cell-based
# [5] = test system: SW480; assay: Antitumor activity against human SW480 cells assessed as inhibition of cell proliferation incubated for 72 hrs by MTT assay; assay type: functional, cell-based; details: SW480, 72 h
# [6] = molecular target: T1, DNA topoisomerase 1 (Homo sapiens); assay: Poison activity at topoisomerase 1 (unknown origin) assessed as s increase in nicked DNA formation at 1 mM using supercoiled plasmid DNA as substrate at 200 to 400 uM incubated for 35 mins by agarose gel electrophoresis
# [7] = test system: HT-29; assay: Induction of cell cycle arrest in human HT-29 cells assessed as ratio of G1/G0 phase at 2 to 8 uM incubated for 24 hrs by flow cytometry (Rvb= 55.20%); assay type: functional; details: dose 2-8 µM
# [8] = test system: HT-29; assay: Antiproliferative activity against human HT-29 cells assessed as inhibition of cell proliferation incubated for 24 to 72 hrs by MTT assay; assay type: functional, cell-based; details: time 24-72 hrs, DDE = dose-dependent effect
# [9] = test system: RKO; assay: Antiproliferative activity against human RKO cells assessed as inhibition of cell proliferation incubated for 24 to 72 hrs by MTT assay; assay type: functional, cell-based; details: time 24-72 hrs, DDE = dose-dependent effect
# [10] = test system: HT-29; assay: Induction of apoptosis in human HT-29 cells assessed as viable cells at 4 uM incubated for 24 hr by Annexin-V-FITC/PI staining based flow cytometry (Rvb= 83.5%); assay type: functional; details: read-out: Activity
# [11] = test system: HT-29; assay: Induction of apoptosis in human HT-29 cells assessed as early apoptotic cells at 2 uM incubated for 24 hr by Annexin-V-FITC/PI staining based flow cytometry (Rvb=6.25%); assay type: functional
# [12] = test system: HT-29; assay: Induction of apoptosis in human HT-29 cells assessed as late apoptotic cells at 4 uM incubated for 24 hr by Annexin-V-FITC/PI staining based flow cytometry (Rvb=8.60%); assay type: functional
# [13] = test system: RKO; assay: Induction of apoptosis in human RKO cells assessed as late apoptotic cells at 3 uM incubated for 24 hr by Annexin-V-FITC/PI staining based flow cytometry (Rvb= 4.49%); assay type: functional
# [14] = test system: RKO; assay: Induction of apoptosis in human RKO cells assessed as late apoptotic cells at 6 uM incubated for 24 hr by Annexin-V-FITC/PI staining based flow cytometry (Rvb= 4.49%); assay type: functional
# [15] = test system: RKO; assay: Induction of apoptosis in human RKO cells assessed as necrotic cells at 6 uM incubated for 24 hr by Annexin-V-FITC/PI staining based flow cytometry (Rvb= 0.30%); assay type: functional
# [16] = test system: HT-29; assay: Induction of apoptosis in human HT-29 cells assessed as increase in intracellular ROS level at 2 to 8 uM for 24 hrs by DCFH-DA staining-based flow cytometric analysis; assay type: functional, cell-based; details: dose 2-8 µM
# [17] = test system: RKO; assay: Induction of apoptosis in human RKO cells assessed as reduction in mitochondrial membrane potential at 3 to 9 uM by TMRE staining based flow cytometry; assay type: functional, cell-based; details: dose 3-9 µM
# [18] = test system: HT-29; assay: Induction of apoptosis in human HT-29 cells assessed as increase in Bax protein level at 2 to 8 uM incubated for 24 hrs by western blot analysis; assay type: functional, cell-based; details: dose 2-8 µM
# [19] = test system: RKO; assay: Induction of apoptosis in human RKO cells assessed as decrease in Bcl-2 protein level at 3 to 9 uM incubated for 24 hrs by western blot analysis; assay type: functional, cell-based; details: dose 3-9 µM
# [20] = test system: RKO; assay: Inhibition of NF-kappaB signalling pathway in human RKO cells assessed as decrease in phosphorylated NF-kappaB p65 level at 3 to 9 uM incubated for 24 hrs by Western blot analysis; assay type: cell-based; details: dose 3-9 µM
# [21] = test system: RKO; assay: Inhibition of NF-kappaB signalling pathway in human RKO cells assessed as decrease in phosphorylated IkappaB level at 3 to 9 uM incubated for 24 hrs by Western blot analysis; assay type: cell-based; details: dose 3-9 µM
# [22] = Cmax in Sprague-Dawley rat at 30 mg/kg, po and measured upto 12 hrs by LC-MS analysis; assay type: ADME, organism-based; set-up: time < 12 hrs, dose 30 mg/kg, route po; details: in vivo
# [23] = Cmax in Sprague-Dawley rat at 100 mg/kg, po and measured upto 24 hrs by LC-MS analysis; assay type: ADME, organism-based; set-up: time < 24 hrs, dose 100 mg/kg, route po; details: in vivo
# [24] = AUC (0-t) in Sprague-Dawley rat at 30 mg/kg, po and measured upto 12 hrs by LC-MS analysis; assay type: ADME, organism-based; set-up: dose 30 mg/kg, time < 12 hrs, route po; details: in vivo
# [25] = test system: HT-29; assay: Antitumor activity against human HT-29 cells xenografted in BALB/c mouse assessed as inhibition of tumor growth at 30 mg/kg, ip bid and measured after 14 days by vernier caliper method; assay type: functional; details: HT-29, 336 h, time 14 day, read-out: TGI
# [26] = test system: HT-29; assay: Antitumor activity against human HT-29 cells xenografted in BALB/c mouse assessed as inhibition of tumor growth at 15 mg/kg, ip bid and measured after 14 days by vernier caliper method; assay type: functional; details: HT-29, 336 h, time 14 day, read-out: TGI
# [27] = molecular target: Prostaglandin G/H synthase 2 (Homo sapiens) (UniProt P35354); assay: Inhibition of COX-2 (unknown origin) at 3 uM
# [28] = molecular target: Prostaglandin G/H synthase 2 (Homo sapiens) (UniProt P35354); assay: Inhibition of COX-2 (unknown origin) at 30 uM
# Prostaglandin G/H synthase 2 (Homo sapiens), sequence (P35354 whole entry, looked up): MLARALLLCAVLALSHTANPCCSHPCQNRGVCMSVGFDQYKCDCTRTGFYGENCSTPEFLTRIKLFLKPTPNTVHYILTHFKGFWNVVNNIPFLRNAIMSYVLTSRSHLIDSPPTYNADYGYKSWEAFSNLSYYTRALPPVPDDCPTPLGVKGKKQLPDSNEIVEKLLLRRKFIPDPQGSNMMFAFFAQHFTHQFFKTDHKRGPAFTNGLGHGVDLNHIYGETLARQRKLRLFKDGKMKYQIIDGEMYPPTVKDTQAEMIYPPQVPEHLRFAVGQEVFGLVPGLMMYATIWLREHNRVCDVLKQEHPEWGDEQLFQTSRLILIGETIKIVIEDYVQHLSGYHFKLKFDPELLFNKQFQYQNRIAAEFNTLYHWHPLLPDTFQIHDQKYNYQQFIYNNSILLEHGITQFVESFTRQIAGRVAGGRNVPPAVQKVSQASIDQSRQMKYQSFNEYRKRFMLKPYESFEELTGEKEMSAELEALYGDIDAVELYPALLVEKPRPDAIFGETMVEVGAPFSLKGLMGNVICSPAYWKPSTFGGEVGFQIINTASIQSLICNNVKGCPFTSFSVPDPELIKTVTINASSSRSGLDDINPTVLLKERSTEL
compound,measurement,setting,value
Cc1c(Cl)cccc1Nc1ccccc1C(=O)Nc1ccc(N2CCNCC2)cc1,inhibition,[1],69%
same,inhibition,[2],53.2%
same,IC50,[3],1480 nM
same,IC50,[4],2060 nM
same,IC50,[5],7360 nM
same,Activity,[6],Active
same,Activity,[7],65.17%
same,Activity,[8],Dde
same,Activity,[9],Dde
same,viability at 4 µM,[10],80%
same,Activity,[11],4.85%
same,Activity,[12],14%
same,Activity,[13],4.66%
same,Activity,[14],6.88%
same,Activity,[15],0.73%
same,Activity,[16],Active
same,Activity,[17],Active
same,Activity,[18],Active
same,Activity,[19],Active
same,inhibition,[20],Active
same,inhibition,[21],Active
same,Cmax,[22],1600 ng/mL
same,Cmax,[23],2000 ng/mL
same,AUC(0-t) at 12 h,[24],5410 ng·h/mL
same,inhibition in vivo at 30 mg/kg,[25],57.9%
same,inhibition in vivo at 15 mg/kg,[26],40.7%
same,inhibition,[27],74.2%
same,inhibition,[28],100%
